Each structure is given as a SMILES string.

In experiment [1] the target is SARS-CoV-2 3CLpro (Severe acute respiratory syndrome coronavirus 2, UniProt P0DTD1). In words: biochemical.
The subject of experiment [2] is SARS-CoV-2. In words: microbe, parasite or virus in culture. The class given is cell-based. Conditions: Severe acute respiratory syndrome coronavirus 2, read-out: Antiviral EC50.

Usually IC50 stands for the midpoint of a concentration-inhibition curve. Usually EC50 stands for the concentration needed to bring the measured effect to its halfway point. Molecule `O=C(Cn1ccc2ccccc21)N(Cc1ccsc1)c1ccc(-c2ccccc2)cc1` returned an IC50 in experiment [1] of more than 100 µM. Besides, the EC50 in experiment [2] was more than 100 µM. The molecule `O=C(Cn1nnc2ccccc21)N(Cc1ccc(-c2ccccn2)cc1)Cc1ccsc1` came in with an IC50 in experiment [1] of 50 to 100 µM. In experiment [2], the EC50 was more than 100 µM. For `O=C(Cn1nnc2ccccc21)N(Cc1ccsc1)c1ccc(-c2ccccc2)cc1`, the EC50 in experiment [2] was in the range of 50 to 100 µM. `O=C(Cn1nnc2ccccc21)N(Cc1ccc(-c2ccccc2)cc1)Cc1ccsc1` gave an IC50 in experiment [1] of more than 100 µM. The EC50 in experiment [2] is 5 to 50 µM.

(Values after patent US20240101541A1 (priority 2020, published 2024).)
